# Source: patent publication US20220127297A1, “Novel Antibacterial 3"-Derivatives Of 4,6-Disubstituted 2,5-Dideoxystreptamine Aminoglycoside Antibiotics” (AGILeBiotics B.V., priority 2018, published 2022)
# System: E. coli (APH(3′)IIIa)
# Test: MIC 50, broth micro-dilution, E. coli expressing APH(3′)IIIa
# Format: cell-based, Escherichia coli
# Settings: ATCC25922 harboring plasmid encoding APH(3′)IIIa
# Outline: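 MIC50 marks the concentration at which growth reaches half its maximum, judged from OD600 of triplicate MH2 cultures after 18 h at 37° C. Strains are E. coli ATCC 25922 expressing the indicated resistance enzyme; compound spans 64 μM-31.3 nM.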
row,Compound,MIC50 [µM]
1,"NCC[C@H](O)C(=O)N[C@@H]1C[C@H](N)[C@@H](O[C@H]2O[C@H](CN)[C@@H](O)[C@@H](O)[C@H]2O)[C@H](O)[C@H]1O[C@H]1O[C@H](CO)[C@@H](O)[C@H](N)[C@H]1O [ABX3002, 3′Epi-KanaA-AHB]",16 to 32

# Same assay, conditions: Escherichia coli, ATCC25922, ATCC25922 harboring plasmid encoding APH(3′)IIIa
row,Compound,MIC50 [µM]
1,"N=C(N)NC1C(O)[C@@H](CO)OC(OC2C(F)[C@H](O[C@H]3OC(CN)[C@@H](O)CC3N)C(N)C[C@H]2NC(=O)[C@@H](O)CCN)[C@@H]1O (stereo partly drawn) [ABX5006, Tobra-AHB-F-Gua]",< 0.25
2,"NCC[C@H](O)C(=O)N[C@@H]1C[C@H](N)[C@@H](O[C@H]2O[C@H](CN)[C@@H](O)[C@H](O)[C@H]2O)[C@H](O)[C@H]1O[C@H]1O[C@H](CO)[C@@H](O)[C@H](N)[C@H]1O [Amikacin, amikacin, reference compound]",16 to 32
3,"N=C(NCc1ccncc1)NC1[C@@H](O)C(OC2[C@@H](F)[C@H](O[C@H]3OC(CN)[C@@H](O)CC3N)C(N)C[C@H]2NC(=O)[C@@H](O)CCN)O[C@H](CO)[C@H]1O (stereo partly drawn) [ABX5048, Tobra-AHB-F-Gua pyridin-4-yl methyl]",0.25
4,"N=C(NCC1CCOC1)NC1[C@@H](O)C(OC2[C@@H](F)[C@H](O[C@H]3OC(CN)[C@@H](O)CC3N)C(N)C[C@H]2NC(=O)[C@@H](O)CCN)O[C@H](CO)[C@H]1O (stereo partly drawn) [ABX5051, Tobra-AHB-F-Gua tetrahydrofuran-3-yl methyl]",0.5
5,"N=C(NC[C@@H]1CNCCO1)NC1[C@@H](O)C(OC2[C@@H](F)[C@H](O[C@H]3OC(CN)[C@@H](O)CC3N)C(N)C[C@H]2NC(=O)[C@@H](O)CCN)O[C@H](CO)[C@H]1O (stereo partly drawn) [ABX5040, Tobra-AHB-F-Gua (S) morpholin-2-yl methyl]",0.25
